In article PMC10984466, “Structure-based identification of salicylic acid derivatives as malarial threonyl tRNA-synthetase inhibitors” (PLOS ONE, 2024):
Read-outs that look alike come from different tables or passages of the source.

Molecular target: T1, PfThrRS (Plasmodium falciparum, UniProt Q8IIA4)
T1 construct: made in house; host or cells: E. coli BL21(DE3)
T1 sequence (Q8IIA4 21-1013): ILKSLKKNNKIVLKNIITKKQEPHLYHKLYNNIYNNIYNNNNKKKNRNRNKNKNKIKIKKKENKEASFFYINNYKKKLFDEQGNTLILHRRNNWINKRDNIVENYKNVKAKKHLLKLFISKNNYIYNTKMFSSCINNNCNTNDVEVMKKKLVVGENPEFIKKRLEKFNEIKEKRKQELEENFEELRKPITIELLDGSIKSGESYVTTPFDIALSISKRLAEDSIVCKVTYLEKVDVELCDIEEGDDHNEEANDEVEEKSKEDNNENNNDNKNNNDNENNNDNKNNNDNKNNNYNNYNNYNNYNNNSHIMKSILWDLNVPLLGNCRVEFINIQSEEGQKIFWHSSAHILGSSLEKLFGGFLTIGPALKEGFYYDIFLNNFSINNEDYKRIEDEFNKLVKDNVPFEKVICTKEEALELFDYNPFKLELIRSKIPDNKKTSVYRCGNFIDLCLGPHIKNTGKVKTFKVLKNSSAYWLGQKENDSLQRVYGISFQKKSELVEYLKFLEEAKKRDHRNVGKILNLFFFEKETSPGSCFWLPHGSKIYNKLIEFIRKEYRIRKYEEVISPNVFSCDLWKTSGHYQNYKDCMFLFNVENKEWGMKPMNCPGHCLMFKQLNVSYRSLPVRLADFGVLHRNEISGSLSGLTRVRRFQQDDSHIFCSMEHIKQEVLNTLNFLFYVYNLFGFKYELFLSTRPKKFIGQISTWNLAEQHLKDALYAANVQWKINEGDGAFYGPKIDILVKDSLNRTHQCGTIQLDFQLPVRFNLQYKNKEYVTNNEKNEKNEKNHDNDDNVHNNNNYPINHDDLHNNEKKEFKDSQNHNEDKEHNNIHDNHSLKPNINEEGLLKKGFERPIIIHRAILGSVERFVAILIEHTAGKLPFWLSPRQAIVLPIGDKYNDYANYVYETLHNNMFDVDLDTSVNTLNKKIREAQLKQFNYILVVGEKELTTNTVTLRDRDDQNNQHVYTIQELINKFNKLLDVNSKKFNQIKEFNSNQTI
Experiment: In vitro PfThrRS inhibition assay (aminoacylation activity, ATP consumption by Kinase-Glo luminescence)
Type: biochemical
Details: for LE (ligand efficiency): PfThrRS inhibitors, Fig 4 and text
Protocol: The bioassay protocol was adapted from the literature. The aminoacylation activity of PfThrRS in the presence of compounds was determined by measuring ATP consumption in the enzymatic reaction by using recombinant PfThrRS and P. falciparum cell extract as a source of t-RNA. ATP consumption was determined by Kinase-Glo® Reagent (Promega Inc.). The luminescence was read on a Tecan Infinite M1000 microplate reader. The inhibitory rate was measured in three independent assays. Borrelidin was obtained from commercial sources and used as a reference compound.

[1] = Table SI1, adenosine binding subsite substituent
[2] = Table SI1, adenosine binding subsite substituent, fraction of PfThrRS inhibited at 100 µM, read-out: ThrRS inhibition @100 µM, %
[3] = Table SI3, zinc ion binding group, fraction of PfThrRS inhibited at 100 µM, read-out: ThrRS inhibition @100 µM, %
[4] = Table SI2, arginine binding group, fraction of PfThrRS inhibited at 100 µM, read-out: ThrRS inhibition @100 µM, %

SMILES	IC50 [1] [µM]	inhibition at 100 µM [2] [%]	also measured
COC(=O)c1cc(S(=O)(=O)Nc2ccccc2)ccc1O [7b, Methyl 2-hydroxy-5-(N-phenylsulfamoyl)benzoate]			inhibition at 100 µM [3]: 19 ± 8%
O=C(NO)c1cc(S(=O)(=O)Nc2ccccc2)ccc1O [7c, N,2-dihydroxy-5-(N-phenylsulfamoyl)benzamide]			inhibition at 100 µM [3]: 16 ± 7%
O=C(O)c1cc(S(=O)(=O)Nc2ccccc2)ccc1S [7d, 2-Mercapto-5-(N-phenylsulfamoyl)benzoic acid]			inhibition at 100 µM [3]: 16 ± 11%
COc1ccc(S(=O)(=O)Nc2ccccc2)cc1C(=O)O [7e]			inhibition at 100 µM [3]: 11 ± 7%
O=C(O)c1cccc(S(=O)(=O)Nc2ccccc2)c1 [7f]			inhibition at 100 µM [3]: 2 ± 4%
O=C(O)c1cc(S(=O)(=O)Nc2ccccc2)ccc1F [7g]			inhibition at 100 µM [3]: 0%
O=C(O)CC(O)(Cc1ccccc1)c1ccc(O)c(C(=O)O)c1 (stereo not drawn) [7h, 5-(1-Carboxy-2-hydroxy-3-phenylpropan-2-yl)-2-hydroxybenzoic acid]			inhibition at 100 µM [4]: 10 ± 8%
O=C(O)c1cc(C(Nc2ccccc2)C(=O)O)ccc1O (stereo not drawn) [7i, 5-(Carboxy(phenylamino)methyl)-2-hydroxybenzoic acid]			inhibition at 100 µM [4]: 0%
O=C(O)c1cc(S(=O)(=O)c2ccccc2)ccc1O [7j, 2-Hydroxy-5-(phenylsulfonyl)benzoic acid]			inhibition at 100 µM [4]: 11 ± 10%
O=C(Nc1cccc(C(F)(F)F)c1)c1cccc(NS(=O)(=O)c2ccc(O)c(C(=O)O)c2)c1 [7k]	31 ± 2	100	
CCCCc1ccc(NS(=O)(=O)c2ccc(O)c(C(=O)O)c2)cc1 [7m]	31 ± 2	93	
O=C(O)c1cc(S(=O)(=O)Nc2ccc(I)cc2)ccc1O [7n]	46 ± 2	88	
O=C(O)c1cc(S(=O)(=O)Nc2ccc(Br)cc2)ccc1O [7o]	32 ± 2	84	
Cc1ccc(NS(=O)(=O)c2ccc(O)c(C(=O)O)c2)cc1 [7s]	67 ± 3	63	
O=C(O)c1cc(S(=O)(=O)Nc2ccc(Oc3ccccc3)cc2)ccc1O [7t, 2-Hydroxy-5-(N-(4-phenoxyphenyl)sulfamoyl)benzoic acid]			inhibition at 100 µM (100 μM compound, Figs 6, 8, 12, read-out: PfThrRS inhibition @100 μM, %): 58 ± 9%
O=C(O)c1cc(S(=O)(=O)Nc2ccc3oc(=O)sc3c2)ccc1O [7u]	89 ± 4	58	
O=C(O)c1cc(S(=O)(=O)Nc2ccc(Cl)cc2)ccc1O [7w]		31 ± 10	
Cc1c(C(=O)O)nnn1-c1sc2c(c1C(=O)O)CCCC2 [compound 8]			LE (ligand efficiency): 0.33; IC50 (verified HTVS hits, Fig 4): 10.3 ± 1.2 µM
O=C(O)CCS(=O)(=O)c1ccc2c(c1)OCCCO2 [compound 9]			LE (ligand efficiency): 0.30; IC50 (verified HTVS hits, Fig 4): 75 ± 5 µM
O=C(c1ccn(-c2ccc(F)cc2)n1)N1CCC(O)(C(=O)O)C1 (stereo not drawn) [compound 10]			LE (ligand efficiency): 0.29; IC50 (verified HTVS hits, Fig 4): 19 ± 2 µM
Cc1nc2cc(NC(=O)C3C4C=CC(C4)C3C(=O)O)ccc2o1 (stereo not drawn) [compound 11]			LE (ligand efficiency): 0.27; IC50 (verified HTVS hits, Fig 4): 39 ± 4 µM
O=C(O)CCc1nc2c(O)nc(SCc3ccccc3F)[nH]c-2nc1=O [compound 12]			LE (ligand efficiency): 0.27; IC50 (verified HTVS hits, Fig 4): 12.1 ± 1.6 µM
O=C(O)c1cc(C2CCN(C(=O)C[C@H]3CCCCO3)CC2)no1 [compound 13]			LE (ligand efficiency): 0.26; IC50 (verified HTVS hits, Fig 4): 65 ± 5 µM
Cc1csc2ncc(C(=O)N[C@H]3Cc4ccc(C(=O)O)cc4C3)n12 [compound 14]			LE (ligand efficiency): 0.25; IC50 (verified HTVS hits, Fig 4): 49 ± 5 µM
CCCCC[C@H](O)CC[C@@H]1[C@H]2Cc3cccc(OCC(=O)O)c3C[C@H]2C[C@H]1O [compound 15, Remodulin, reference compound]			LE (ligand efficiency): 0.25; IC50 (verified HTVS hits, Fig 4): 12.5 ± 1.5 µM

Further lines, with some results ahead:

IC50 [1] [µM]	inhibition at 100 µM [2] [%]	SMILES	also measured
13.1 ± 1.4	100	O=C(O)c1cc(S(=O)(=O)Nc2ccccc2)ccc1O [7a, 2-Hydroxy-5-(N-phenylsulfamoyl)benzoic acid]	LE (ligand efficiency) (listed as 7): 0.34
32 ± 2	100	O=C(O)c1cc(S(=O)(=O)Nc2cc(Cl)ccc2Oc2ccccc2)ccc1O [7l]	
46 ± 3	80 ± 9	COc1cccc(-c2cccc(NS(=O)(=O)c3ccc(O)c(C(=O)O)c3)c2)c1 [7p, 2-Hydroxy-5-(N-(3’-methoxy-[1,1’-biphenyl]-3-yl)sulfamoyl)benzoic acid]	
55 ± 3	67 ± 11	O=C(O)c1cc(S(=O)(=O)Nc2ccc(Cc3ccccc3)cc2)ccc1O [7q, 5-(N-(4-benzylphenyl)sulfamoyl)-2-hydroxybenzoic acid]	
76 ± 4	64	O=C(O)c1cc(S(=O)(=O)Nc2cccc(Cl)c2)ccc1O [7r]	
84 ± 4	57	O=C(O)c1cc(S(=O)(=O)Nc2cccc3ccccc23)ccc1O [7v]	
	7 ± 1	O=C(O)c1cc(S(=O)(=O)Nc2cccc(-c3ccccc3)c2)ccc1O [7x, 5-(N-([1,1’-biphenyl]-3-yl)sulfamoyl)-2-hydroxybenzoic acid]	
	35 ± 11	O=C(O)c1cc(S(=O)(=O)Nc2ccc(Oc3ccccc3)cc2)ccc1O [LVV-455]	
